Test [1] addresses T1, Calcium/calmodulin-dependent protein kinase type IV (Homo sapiens, UniProt Q16566).
T1 sequence (Q16566 whole entry): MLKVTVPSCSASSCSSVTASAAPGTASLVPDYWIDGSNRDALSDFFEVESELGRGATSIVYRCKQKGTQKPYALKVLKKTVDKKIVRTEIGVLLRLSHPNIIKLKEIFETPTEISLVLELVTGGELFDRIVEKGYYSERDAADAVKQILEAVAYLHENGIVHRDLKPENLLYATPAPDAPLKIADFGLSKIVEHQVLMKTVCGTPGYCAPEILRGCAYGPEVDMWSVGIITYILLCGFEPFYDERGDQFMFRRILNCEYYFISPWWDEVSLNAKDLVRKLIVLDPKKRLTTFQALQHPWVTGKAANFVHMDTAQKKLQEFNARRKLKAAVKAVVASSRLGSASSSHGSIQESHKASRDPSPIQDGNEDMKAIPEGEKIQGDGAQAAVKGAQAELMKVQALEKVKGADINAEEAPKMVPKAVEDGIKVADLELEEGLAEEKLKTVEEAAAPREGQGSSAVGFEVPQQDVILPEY

Test [2] has as its target T2, ATP-dependent RNA helicase DDX42 (Homo sapiens, UniProt Q86XP3).
T2 sequence (Q86XP3 whole entry): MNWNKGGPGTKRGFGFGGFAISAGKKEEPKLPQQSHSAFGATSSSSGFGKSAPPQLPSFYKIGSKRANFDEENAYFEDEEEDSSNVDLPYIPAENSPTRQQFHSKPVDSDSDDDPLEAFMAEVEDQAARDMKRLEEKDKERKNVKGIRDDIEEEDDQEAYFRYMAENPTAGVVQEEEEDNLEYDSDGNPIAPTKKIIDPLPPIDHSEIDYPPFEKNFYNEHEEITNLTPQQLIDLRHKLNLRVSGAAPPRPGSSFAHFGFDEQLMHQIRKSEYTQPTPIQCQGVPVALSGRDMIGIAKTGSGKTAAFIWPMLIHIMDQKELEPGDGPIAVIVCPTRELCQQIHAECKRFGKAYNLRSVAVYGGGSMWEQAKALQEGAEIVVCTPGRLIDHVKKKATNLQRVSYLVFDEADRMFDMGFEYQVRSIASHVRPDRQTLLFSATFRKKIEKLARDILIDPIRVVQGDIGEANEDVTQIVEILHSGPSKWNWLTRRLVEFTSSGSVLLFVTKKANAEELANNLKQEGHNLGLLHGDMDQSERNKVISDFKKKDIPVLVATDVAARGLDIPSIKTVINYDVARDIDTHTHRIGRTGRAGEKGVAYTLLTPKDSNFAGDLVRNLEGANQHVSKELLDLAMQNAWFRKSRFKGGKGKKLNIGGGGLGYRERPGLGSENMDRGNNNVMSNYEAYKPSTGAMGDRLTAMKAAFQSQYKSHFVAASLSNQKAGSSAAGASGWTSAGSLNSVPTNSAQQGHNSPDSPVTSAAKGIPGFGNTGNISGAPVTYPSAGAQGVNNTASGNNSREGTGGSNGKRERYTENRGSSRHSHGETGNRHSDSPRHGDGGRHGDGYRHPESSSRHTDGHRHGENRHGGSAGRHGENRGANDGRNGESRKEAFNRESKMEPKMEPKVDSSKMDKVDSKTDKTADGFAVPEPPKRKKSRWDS

Test [3] addresses Mitogen-activated protein kinase kinase kinase 4 (Homo sapiens, UniProt Q9Y6R4).
In test [4] the target is Mitogen-activated protein kinase 3 (Homo sapiens, UniProt P27361).
Mitogen-activated protein kinase 3, sequence (P27361 whole entry): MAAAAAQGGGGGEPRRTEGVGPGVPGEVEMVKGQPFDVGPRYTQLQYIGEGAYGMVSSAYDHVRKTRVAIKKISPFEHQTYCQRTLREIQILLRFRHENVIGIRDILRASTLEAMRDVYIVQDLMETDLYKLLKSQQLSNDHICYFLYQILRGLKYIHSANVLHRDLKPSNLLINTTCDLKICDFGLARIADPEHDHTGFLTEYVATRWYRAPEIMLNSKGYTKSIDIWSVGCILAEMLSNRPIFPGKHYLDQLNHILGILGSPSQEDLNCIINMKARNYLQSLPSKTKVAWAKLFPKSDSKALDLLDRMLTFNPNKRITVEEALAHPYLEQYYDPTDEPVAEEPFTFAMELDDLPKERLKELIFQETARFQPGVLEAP
Test [5] deals with T3, STE20-related kinase adapter protein alpha (Homo sapiens, UniProt Q7RTN6).
T3 sequence (Q7RTN6 whole entry): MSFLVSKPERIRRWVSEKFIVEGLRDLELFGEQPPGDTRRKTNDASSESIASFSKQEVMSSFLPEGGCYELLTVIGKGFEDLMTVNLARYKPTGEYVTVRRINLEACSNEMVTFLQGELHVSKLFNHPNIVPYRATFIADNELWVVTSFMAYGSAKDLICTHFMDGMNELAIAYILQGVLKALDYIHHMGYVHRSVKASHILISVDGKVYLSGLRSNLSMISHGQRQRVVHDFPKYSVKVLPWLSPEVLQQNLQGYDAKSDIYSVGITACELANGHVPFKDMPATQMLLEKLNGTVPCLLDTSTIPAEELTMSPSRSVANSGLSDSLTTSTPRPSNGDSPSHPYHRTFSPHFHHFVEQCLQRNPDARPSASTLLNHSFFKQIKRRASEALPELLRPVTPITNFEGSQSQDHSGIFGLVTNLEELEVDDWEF

The target of a further test is Wee1-like protein kinase (Homo sapiens, UniProt P30291).
Wee1-like protein kinase, sequence (P30291 whole entry): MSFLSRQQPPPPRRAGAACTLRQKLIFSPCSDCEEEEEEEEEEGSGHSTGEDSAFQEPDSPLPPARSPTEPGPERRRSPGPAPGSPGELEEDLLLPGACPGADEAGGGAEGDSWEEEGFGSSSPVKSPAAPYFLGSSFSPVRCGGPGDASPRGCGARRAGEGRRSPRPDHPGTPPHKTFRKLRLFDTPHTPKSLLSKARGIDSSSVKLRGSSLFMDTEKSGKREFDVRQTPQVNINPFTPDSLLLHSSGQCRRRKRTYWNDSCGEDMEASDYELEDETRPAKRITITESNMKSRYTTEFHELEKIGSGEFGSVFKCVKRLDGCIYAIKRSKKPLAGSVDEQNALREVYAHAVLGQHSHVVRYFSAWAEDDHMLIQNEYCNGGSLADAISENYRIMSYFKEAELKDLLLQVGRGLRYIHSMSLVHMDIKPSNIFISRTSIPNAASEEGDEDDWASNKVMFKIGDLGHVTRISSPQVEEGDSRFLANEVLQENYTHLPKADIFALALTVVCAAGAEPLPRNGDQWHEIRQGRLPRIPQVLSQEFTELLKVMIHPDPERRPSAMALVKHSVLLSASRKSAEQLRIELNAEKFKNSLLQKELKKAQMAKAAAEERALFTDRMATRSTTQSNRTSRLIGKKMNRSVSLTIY

Active and inactive are the calls of the source.

What is called Kd is the constant that tells how readily two partners part at equilibrium.
Further: in the data inactive means no Kd found up to 30 µM.

Mitogen-activated protein kinase kinase kinase 4, sequence (Q9Y6R4 whole entry): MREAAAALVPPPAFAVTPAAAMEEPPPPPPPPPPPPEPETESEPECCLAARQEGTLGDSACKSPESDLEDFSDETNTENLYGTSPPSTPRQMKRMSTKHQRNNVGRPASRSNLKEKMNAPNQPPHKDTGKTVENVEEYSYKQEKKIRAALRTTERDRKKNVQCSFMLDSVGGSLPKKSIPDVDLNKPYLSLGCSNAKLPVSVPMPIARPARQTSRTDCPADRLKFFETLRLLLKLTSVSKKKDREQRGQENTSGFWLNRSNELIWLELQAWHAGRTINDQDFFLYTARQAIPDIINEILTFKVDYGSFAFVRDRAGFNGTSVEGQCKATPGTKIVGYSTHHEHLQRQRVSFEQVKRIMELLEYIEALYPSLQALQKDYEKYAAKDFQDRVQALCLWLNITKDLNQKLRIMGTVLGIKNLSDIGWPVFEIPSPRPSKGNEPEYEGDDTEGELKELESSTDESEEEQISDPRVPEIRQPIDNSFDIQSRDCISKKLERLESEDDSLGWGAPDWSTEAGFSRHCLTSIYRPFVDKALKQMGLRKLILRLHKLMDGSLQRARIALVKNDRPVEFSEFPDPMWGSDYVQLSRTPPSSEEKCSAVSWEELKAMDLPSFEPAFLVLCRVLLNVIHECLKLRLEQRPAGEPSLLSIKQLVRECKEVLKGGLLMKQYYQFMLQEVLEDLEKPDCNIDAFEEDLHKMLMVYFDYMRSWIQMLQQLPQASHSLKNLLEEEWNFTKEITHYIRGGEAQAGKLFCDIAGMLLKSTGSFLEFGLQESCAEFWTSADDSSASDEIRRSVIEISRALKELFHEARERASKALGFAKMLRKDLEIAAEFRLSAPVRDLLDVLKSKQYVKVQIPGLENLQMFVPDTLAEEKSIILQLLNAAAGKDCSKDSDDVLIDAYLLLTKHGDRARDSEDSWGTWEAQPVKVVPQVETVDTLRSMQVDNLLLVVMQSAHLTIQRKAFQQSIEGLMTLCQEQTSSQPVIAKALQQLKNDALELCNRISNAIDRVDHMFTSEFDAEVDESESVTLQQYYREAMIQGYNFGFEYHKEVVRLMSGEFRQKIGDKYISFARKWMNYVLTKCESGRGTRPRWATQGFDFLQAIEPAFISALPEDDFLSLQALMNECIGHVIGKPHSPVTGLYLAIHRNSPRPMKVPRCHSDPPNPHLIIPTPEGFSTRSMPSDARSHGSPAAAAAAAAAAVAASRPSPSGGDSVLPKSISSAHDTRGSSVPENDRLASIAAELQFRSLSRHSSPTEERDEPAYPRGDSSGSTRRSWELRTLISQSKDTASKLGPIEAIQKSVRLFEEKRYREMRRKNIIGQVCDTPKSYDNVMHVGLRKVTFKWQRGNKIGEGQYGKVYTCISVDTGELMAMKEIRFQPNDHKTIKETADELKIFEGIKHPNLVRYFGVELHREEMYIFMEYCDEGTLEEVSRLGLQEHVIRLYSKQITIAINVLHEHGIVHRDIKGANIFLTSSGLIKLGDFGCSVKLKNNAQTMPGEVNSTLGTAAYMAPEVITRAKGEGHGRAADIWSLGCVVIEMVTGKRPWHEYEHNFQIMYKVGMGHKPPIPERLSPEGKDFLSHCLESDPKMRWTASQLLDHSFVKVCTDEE

Regarding `CN1CC[C@@H](c2c(O)cc(O)c3c(=O)cc(-c4ccccc4Cl)oc23)[C@@H]1CO`, the Kd in test [1] was > 30 µM (inactive); in test [2], 0.002 µM; in test [3], > 30 µM (inactive); in test [4] it was > 30 µM (inactive); in test [5], > 30 µM (inactive); at Wee1-like protein kinase, > 30 µM (inactive).
`Cn1cc(-c2ccc3nnc(C(F)(F)c4ccc5ncccc5c4)n3n2)cn1` [JNJ-38877605]: the Kd (in test [1]; in test [2]; in test [3]; in test [4]; in test [5]; at Wee1-like protein kinase) was > 30 µM (inactive) throughout.
Regarding `Cc1ccc(-n2nc(C(C)(C)C)cc2NC(=O)NCc2cc(F)ccc2Oc2ccc3c(cnn3CCO)c2)cc1` [PEXMETINIB], the Kd (in test [1]; in test [2]; in test [3]; in test [4]; in test [5]; at Wee1-like protein kinase) was > 30 µM (inactive) each time.
For `Cc1c(F)cc(C(=O)NC2CC2)cc1-c1ccc(C(=O)NCC(C)(C)C)cn1` [LOSMAPIMOD], the Kd (in test [1]; in test [2]; in test [3]; in test [4]; in test [5]; on Wee1-like protein kinase) was > 30 µM (inactive) each time.
For the compound `Cc1cc(Nc2cc(N3CCN(C)CC3)nc(/C=C/c3ccccc3)n2)n[nH]1` [ENMD-2076], the Kd (in test [1]; in test [2]; in test [3]; in test [4]; in test [5]; at Wee1-like protein kinase) was > 30 µM (inactive) throughout.
As for `COc1cc(N2CCC(N3CCN(C)CC3)CC2)ccc1Nc1ncnc(Nc2ccccc2S(=O)(=O)C(C)C)n1` [ASP-3026], the Kd (in test [1]; in test [2]; in test [3]; in test [4]; in test [5]; on Wee1-like protein kinase) was > 30 µM (inactive) throughout.
`CNC(=O)c1ccc(-c2cnc3ncc(Cc4ccc5ncccc5c4)n3n2)cc1F` [CAPMATINIB]: the Kd (in test [1]; in test [2]; in test [3]; in test [4]; in test [5]; on Wee1-like protein kinase) was > 30 µM (inactive) in each case.
For `CNC(=O)c1ccc(C)c(-n2c(C)cc(OCc3ccc(F)cc3F)c(Br)c2=O)c1` [PH-797804], the Kd in test [1] was > 30 µM (inactive); in test [2] it was > 30 µM (inactive); in test [3], > 30 µM (inactive); in test [4], > 30 µM (inactive); in test [5] it was 0.672 µM; on Wee1-like protein kinase, > 30 µM (inactive).
With `CN1CCC(COc2cnc(-c3cccc(Cn4nc(-c5cccc(C#N)c5)ccc4=O)c3)nc2)CC1` [TEPOTINIB], the Kd (in test [1]; in test [2]; in test [3]; in test [4]; in test [5]; at Wee1-like protein kinase) was > 30 µM (inactive) throughout.
For `CCc1cnn2c(NCc3ccc[n+]([O-])c3)cc(N3CCCC[C@H]3CCO)nc12` [DINACICLIB], the Kd (in test [1]; in test [2]; in test [3]; in test [4]; in test [5]; on Wee1-like protein kinase) was > 30 µM (inactive) in each case.
As for `CNC(=O)c1cc(Oc2ccc(NC(=O)Nc3ccc(Cl)c(C(F)(F)F)c3)c(F)c2)ccn1` [REGORAFENIB], the Kd (in test [1]; in test [2]; in test [3]; in test [4]; in test [5]; on Wee1-like protein kinase) was > 30 µM (inactive) in each case.

Values taken from ChEMBL document CHEMBL3991601, “The target landscape of clinical kinase drugs” (Science, 2017).
